In ChEMBL document CHEMBL5724914, “Linking interpersonal differences in gut microbiota composition and drug biotransformation activity” (2024):

How the values were obtained:
[1] = human gut metagenome, 24 h, 2 µM
[2] = human gut metagenome, 24 h, 2 µM; remark: listed apart in the source
[3] = human gut metagenome, 24 h, 2 µM; remark: listed apart in the source
[4] = human gut metagenome, 24 h, 2 µM; remark: listed apart in the source
[5] = (§1) The drug is tested on WLS-240 corresponding to human gut metagenome with ENA study accession number: PRJEB37062 and ENA sample accession number: ERS12561773 for biotransformation under anaerobic condition. The drug concentrations were measured over 9 timepoints collected between 0 and 24 hours of incubation by liquid-chromatography-coupled mass spectrometry (LC–MS); settings: 2 µM
[6] = human gut metagenome, 24 h, 2 µM; remark: listed apart in the source
[7] = as §1, with “WLS-069” for “WLS-240”, “ERS12561748” for “ERS12561773”; settings: 2 µM
[8] = as §1, with “WLS-073” for “WLS-240”, “ERS12561749” for “ERS12561773”; settings: 2 µM
[9] = human gut metagenome, 24 h, 2 µM; remark: listed apart in the source
[10] = as §1, with “WLS-052” for “WLS-240”, “ERS12561747” for “ERS12561773”; settings: 2 µM
[11] = as §1, with “WLS-010” for “WLS-240”, “ERS12561743” for “ERS12561773”; settings: 2 µM
[12] = as §1, with “Z-004” for “WLS-240”, “to” for “to human gut”, “ERS12561804” for “ERS12561773”; settings: 2 µM
[13] = human gut metagenome, 24 h, 2 µM; remark: listed apart in the source
[14] = human gut metagenome, 24 h, 2 µM; remark: listed apart in the source
[15] = as §1, with “Z-026” for “WLS-240”, “to” for “to human gut”, “ERS12561825” for “ERS12561773”; settings: 2 µM
[16] = as §1, with “WLS-220” for “WLS-240”, “ERS12561769” for “ERS12561773”; settings: 2 µM
[17] = human gut metagenome, 24 h, 2 µM; remark: listed apart in the source
[18] = as §1, with “WLS-310” for “WLS-240”, “ERS12561785” for “ERS12561773”; settings: 2 µM
[19] = as §1, with “Z-017” for “WLS-240”, “mouse” for “human”, “ERS12561816” for “ERS12561773”; settings: 2 µM
[20] = as §1, with “WLS-039” for “WLS-240”, “ERS12561746” for “ERS12561773”; settings: 2 µM
Note: call rule not given here.

Row | SMILES | Bacterial Biotransformation [1] | Bacterial Biotransformation [2] | Bacterial Biotransformation [3] | Bacterial Biotransformation [4] | Bacterial Biotransformation [5] | Bacterial Biotransformation [6] | Bacterial Biotransformation [7] | Bacterial Biotransformation [8] | Bacterial Biotransformation [9] | Bacterial Biotransformation [10] | Bacterial Biotransformation [11] | Bacterial Biotransformation [12] | Bacterial Biotransformation [13] | Bacterial Biotransformation [14] | Bacterial Biotransformation [15] | Bacterial Biotransformation [16] | Bacterial Biotransformation [17] | Bacterial Biotransformation [18] | Bacterial Biotransformation [19] | Bacterial Biotransformation [20]
1 | CNS(=O)(=O)Cc1ccc2[nH]cc(CCN(C)C)c2c1.O=C(O)CCC(=O)O [SUMATRIPTAN SUCCINATE] | Compound metabolized | Compound NOT metabolized | Compound NOT metabolized | Compound metabolized | Compound metabolized | Compound NOT metabolized | Compound metabolized | Compound NOT metabolized | Compound metabolized | Compound NOT metabolized | Compound NOT metabolized | Compound NOT metabolized | Compound NOT metabolized | Compound metabolized | Compound NOT metabolized | Compound metabolized | Compound metabolized | Compound NOT metabolized | Compound NOT metabolized | Compound NOT metabolized
2 | Cc1ccc(S(=O)(=O)NC(=O)NN2CC3CCCC3C2)cc1 (stereo not given) [GLICLAZIDE] | Compound metabolized | Compound metabolized | Compound metabolized | Compound metabolized | Compound metabolized | Compound metabolized | Compound metabolized | Compound metabolized | Compound metabolized | Compound metabolized | Compound metabolized | Compound NOT metabolized | Compound metabolized | Compound metabolized | Compound metabolized | Compound metabolized | Compound metabolized | Compound metabolized | Compound NOT metabolized | Compound metabolized
3 | CCN(CC)CCOCCOC(=O)C1(c2ccccc2)CCCC1.O=C(O)CC(O)(CC(=O)O)C(=O)O [CARBETAPENTANE CITRATE] | Compound metabolized | Compound NOT metabolized | Compound metabolized | Compound metabolized | Compound metabolized | Compound NOT metabolized | Compound metabolized | Compound metabolized | Compound metabolized | Compound metabolized | Compound metabolized | Compound metabolized | Compound metabolized | Compound metabolized | Compound NOT metabolized | Compound metabolized | Compound metabolized | Compound metabolized | Compound NOT metabolized | Compound metabolized
4 | COc1ccc2c3c1O[C@H]1C[C@@H](O)C=C[C@@]31CCN(C)C2 [GALANTAMINE] | Compound metabolized | Compound NOT metabolized | Compound metabolized | Compound NOT metabolized | Compound metabolized | Compound metabolized | Compound NOT metabolized | Compound NOT metabolized | Compound metabolized | Compound NOT metabolized | Compound metabolized | Compound NOT metabolized | Compound NOT metabolized | Compound metabolized | Compound NOT metabolized | Compound metabolized | Compound metabolized | Compound metabolized | Compound NOT metabolized | Compound NOT metabolized
5 | Br.CN(C)CCCC1(c2ccc(F)cc2)OCc2cc(C#N)ccc21 (stereo not given) [CITALOPRAM HYDROBROMIDE] | Compound metabolized | Compound NOT metabolized | Compound NOT metabolized | Compound metabolized | Compound metabolized | Compound NOT metabolized | Compound metabolized | Compound NOT metabolized | Compound metabolized | Compound NOT metabolized | Compound NOT metabolized | Compound NOT metabolized | Compound metabolized | Compound metabolized | Compound NOT metabolized | Compound NOT metabolized | Compound metabolized | Compound metabolized | Compound NOT metabolized | Compound NOT metabolized
6 | CN(C)CCC=C1c2ccccc2C=Cc2ccccc21 [CYCLOBENZAPRINE] | Compound NOT metabolized | Compound metabolized | Compound metabolized | Compound metabolized | Compound metabolized | Compound NOT metabolized | Compound metabolized | Compound metabolized | Compound metabolized | Compound metabolized | Compound metabolized | Compound metabolized | Compound metabolized | Compound metabolized | Compound NOT metabolized | Compound metabolized | Compound metabolized | Compound metabolized | Compound NOT metabolized | Compound metabolized
7 | CCN(CC)CC#CCOC(=O)C(O)(c1ccccc1)C1CCCCC1.Cl (stereo not given) [OXYBUTYNIN CHLORIDE] | Compound metabolized | Compound metabolized | Compound metabolized | Compound metabolized | Compound metabolized | Compound NOT metabolized | Compound metabolized | Compound NOT metabolized | Compound metabolized | Compound metabolized | Compound metabolized | Compound metabolized | Compound metabolized | Compound metabolized | Compound NOT metabolized | Compound metabolized | Compound metabolized | Compound metabolized | Compound NOT metabolized | Compound metabolized
8 | CN/C(=N/CCSCc1nc[nH]c1C)NC#N [CIMETIDINE] | Compound metabolized | Compound NOT metabolized | Compound NOT metabolized | Compound metabolized | Compound metabolized | Compound NOT metabolized | Compound metabolized | Compound NOT metabolized | Compound metabolized | Compound NOT metabolized | Compound metabolized | Compound NOT metabolized | Compound NOT metabolized | Compound metabolized | Compound NOT metabolized | Compound metabolized | Compound metabolized | Compound metabolized | Compound NOT metabolized | Compound NOT metabolized
